Legend:
[1] = test system: NB-4 (a leukaemia cell line); experiment: MTT cell viability assay, NB-4; format: cell-based; settings: 72 hrs
Method: MDA-MB-453 (ATCC HTB-131) cells were grown in media with sodium pyruvate. MDA-MB-231 cells (ATCC HTB-26) were grown in DMEM media or L-15 supplemented with Glutamax (1×). U87-MG (ATCC HTB-14) and MDA-MB-468 (ATCC HTB-132) cells were cultured in DMEM supplemented with Glutamax (1×). NB-4 (DSMZ ACC-207) cells were cultured in RPMI 1640.
Breast cancer and glioblastoma cell lines were plated 4000 cells/well in 96-well plates in the presence of 10% FBS media. The following day cells were treated with various concentrations of the example compounds (0.1% DMSO final) and incubated for 72 hrs. After the incubation an MTT assay was performed to access cell viability. Percent of viability was determined using DMSO vehicle and no cell (blank) controls.

recombinant TrxR = biological target: T1, recombinant TrxR (Rattus norvegicus, UniProt O89049); experiment: Sec-independent SecTRAP activity (Juglone assay); settings: for Juglone Act (% @ 100% DTNB inhibition): compound at the concentration that achieves 100% inhibition of TrxR in the DTNB assay
T1 sequence (O89049 1-499): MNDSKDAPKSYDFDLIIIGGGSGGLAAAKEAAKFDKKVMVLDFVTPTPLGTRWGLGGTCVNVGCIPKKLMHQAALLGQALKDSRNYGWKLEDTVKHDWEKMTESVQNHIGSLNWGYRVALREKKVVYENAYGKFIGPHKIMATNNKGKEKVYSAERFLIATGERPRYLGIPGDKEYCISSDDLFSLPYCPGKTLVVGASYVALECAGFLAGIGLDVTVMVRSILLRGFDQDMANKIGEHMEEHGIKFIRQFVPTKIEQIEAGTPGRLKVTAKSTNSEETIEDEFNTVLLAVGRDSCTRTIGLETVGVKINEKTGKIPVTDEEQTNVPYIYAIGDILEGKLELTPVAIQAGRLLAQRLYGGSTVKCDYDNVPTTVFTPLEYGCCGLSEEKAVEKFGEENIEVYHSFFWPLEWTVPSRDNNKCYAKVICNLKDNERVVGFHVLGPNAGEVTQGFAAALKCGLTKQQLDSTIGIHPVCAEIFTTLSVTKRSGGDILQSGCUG
Method: SecTRAP forming capabilities of compounds with TrxR was determined using the Juglone Assay. Compounds were incubated in the presence of recombinant TrxR and 250 μM NADPH for 15 minutes at concentrations fully inhibiting enzyme activity in the DTNB assay. 100 μM juglone was then added to each well and NADPH consumption was followed at OD340 to determine sustained reductive capacity at the N-terminus of TrxR (SecTRAP Activity). Activity was determined following the consumption of NADPH over time and normalized to DMSO only (Vehicle) and TrxR lacking (blank) controls.
Aliquots were used in a DTNB assay to determine inhibition of enzyme activity. […] Incubation samples were then added to a reaction buffer containing 250 μM NADPH and 100 μM juglone, whereupon NADPH consumption was followed at OD340 to determine sustained SecTRAP activity.
Higher % values for juglone activity (juglone reduction activity) in this assay are indicative of stronger prooxidant activity.

MDA-MB-231 xenografts = experiment: MDA-MB-231 xenograft tumor growth in immunodeficient athymic nude mice; format: in vivo; settings: for TGI: 12 doses; for final tumor volumes versus vehicle (waterfall plot): end of experiment (22 days OT-1000, 25 days OT-1129)
Method: Athymic nude mice were inoculated orthotopically with 5×10^6 MDA-MB-231 breast cancer cells into the mammary fat pad, and randomized for treatment when tumors reached an average volume of 80-120 mm^3 (N=12 in each group). […] Xenograft tumor volume was assessed using caliper measurements for 22 days. Athymic nude mouse model is described by Richmond A, and Su Y., Disease Models & Mechanisms. 2008; 1(2-3):78-82.
Athymic nude mice were inoculated orthotopically with 5×10^6 MDA-MB-231 breast cancer cells into the mammary fat pad, and randomized for treatment when tumors reached an average volume of 80-120 mm^3 (N=12 in each group). […] Xenograft tumor volume was assessed using caliper measurements for 25 days. MDA-MB-231 Xenograft Tumor Growth in Immunodeficient Athymic Nude Mice Treated with OT-1096 or Vehicle Control. Athymic nude mice were inoculated orthotopically with 5×10^6 MDA-MB-231 breast cancer cells into the mammary fat pad and randomized for treatment when tumors reached an average volume of 80-120 mm^3 (N=12 in each group). Mice were treated with 10 mg/kg OT-1096 via i.v. injection or with vehicle i.v., once a day using a 5 day on two day off (5/2) dosing regimen for the duration of the experiment. Xenograft tumor volume was assessed using caliper measurements for 25 days. Data is represented as mean tumor volume±SEM. Statistical significance (p<0.05) was determined using a Two-way repeated measures ANOVA with Sidak's multiple comparison test. […] Relative Luminescence Flux in Primary 4T1-Luc2 Immunocompetent Tumors Implanted into the Mammary Fat Pad of BALB/C Mice and Treated with OT-1096 or Vehicle Control. Female BALB/c immunocompetent mice were implanted with 1×10^5 4T1-luc2 murine tumor cells into the mammary fat pad. Upon growth of the tumors between 60-90 mm^3 the animals were selected for imaging. Mice were randomized and enrolled for treatment based on imaging flux values. Mice were treated once daily with 5 mg/kg of either OT-1096 or vehicle control using a 5/2 (five days on, two days off) dosing protocol. Upon days 1, 8, and 15 whole body imaging was performed on the mice to follow tumor cell luminescence. Analysis consists of primary tumor luminescence in mice. Each mouse was normalized to its own baseline luminescence from day 1. […] Data is represented as mean±SEM. Statistical significance (p<0.05) was determined using a Mann-Whitney test. The relative luminescence flux for mice treated with OT-1096 was significant compared to vehicle at day 15. Primary Tumor Growth of TM00098 Patient Derived Xenografts-Triple Negative Breast Cancer in Immunocompetent Humanized NSG Mice (Hu-CD34-NSG) Treated with OT-1096 or Vehicle Control. Female NSG mice were implanted with human CD34+ hematopoietic stem cells from multiple donors and the level of human CD45+ cells were measured in the peripheral blood 12 weeks post engraftment. Mice with >25% human CD45+ cells in the peripheral blood were determined to have a humanized immune system (Hu-CD34-NSG™) mice and were enrolled into the study. The Hu-CD34-NSG mice were implanted with TM00098 patient-derived xenografts (PDX) subcutaneously on the right flank. The TM00098 PDX cancer cells originate from a primary tumor of a patient suffering from a grade 3 TNBC invasive ductal carcinoma. When the tumors reached a volume between 60-120 mm^3 mice were treated with either 10 mg/kg OT-1096 three times a week intravenously (donor 5243 n=5, donor 5252 n=7) or with a vehicle three times a week intravenously (donor 5243 n=3, donor 5252 n=2). In case of tail vein swelling when the test substance or vehicle could not be administered intravenously, Intraperitoneal injection was applied. Tumor volume was measured using a digital caliper two times a week for the duration of the study. Animals that reached a body condition score of ≤2, a body weight loss of ≥20% or a tumor volume >2000 mm^3 were euthanized before study terminus. Animals with ulcerated tumors were also euthanized before study terminus. […]

IC50 [1] [nM] | classification as SecTRAP forming agent (recombinant TrxR; DTNB assay inhibited, juglone activity retained) | Juglone Act (% @ 100% DTNB inhibition) (recombinant TrxR) [%] | SMILES | N-terminal juglone reduction activity (recombinant TrxR; Iniparib at 1 mM compared with OT-1000 at 1 μM (FIG. 1B)) | TGI (MDA-MB-231 xenografts; 25 mg/kg intraperitoneally, 25 days) [%] | TGI (MDA-MB-231 xenografts; 25 mg/kg intravenously, 25 days) [%] | final tumor volumes versus vehicle (waterfall plot) (MDA-MB-231 xenografts) | % TGI (MDA-MB-231 xenografts; 10 mg/kg IV, 5 day on two day off (5/2), 25 days) [%] | mean tumor volume compared to vehicle (MDA-MB-231 xenografts; 10 mg/kg i.v. 5/2, day 25, p<0.05) | tumor growth inhibition rate (TGI) (MDA-MB-231 xenografts; 10 mg/kg IV, 11 times over 22 days) [%]
57600 | SecTRAP forming compound |  | NC(=O)c1ccc(I)c([N+](=O)[O-])c1 [Iniparib, 4-Iodo-3-nitrobenzamide, reference compound] | retained at a similar level to that obtained for OT-1000 | 9 |  |  |  |  | 
1120 |  | 74.83 | CCS(=O)(=O)c1nc(OC)ccc1[N+](=O)[O-] [OT-1129, 2-(ethylsulfonyl)-6-methoxy-3-nitropyridine] |  |  | 25 | more frequently of lower size than vehicle-treated tumors |  |  | 
3220 |  | 86.96 | CCCCCCCCS(=O)(=O)c1nc(OC)ccc1[N+](=O)[O-] [OT-1096, 6-methoxy-3-nitro-2-(octylsulfonyl)pyridine] |  |  |  |  | 19 | statistically significant | 
1200 |  |  | COc1ccc([N+](=O)[O-])c(S(=O)(=O)c2ccc(Cl)cc2)n1 [OT-1000, 2-((4-Chlorophenyl)sulfonyl)-6-methoxy-3-nitropyridine] |  |  |  | more frequently of lower size than vehicle-treated tumors |  |  | 37
